Experimental data: US20190076456A1, “COMPOSITIONS AND METHODS FOR LIVER DISEASES” (priority 2017, published 2019)
Like-named read-outs stand apart in the source and are kept apart here.

Columns and labels:
[1] = cited from earlier work
alcohol hangover = assay: Nasal spray administration to a human subject with alcohol hangover; format: in vivo; details: 50 mg NAD+ per administration, three times in a day
Experimental: A subject, who is […] and suffers from alcohol hangover was administered by nasal spray a composition of invention (with a dosage of 50 mg NAD+ per administration) three times in a day.

Question: Which stability of solution ([1]; 4° C. and neutral pH) does the source give for `NC(=O)c1ccc[n+]([C@@H]2O[C@H](COP(=O)([O-])OP(=O)(O)OC[C@H]3O[C@@H](n4cnc5c(N)ncnc54)[C@H](O)[C@@H]3O)[C@@H](O)[C@H]2O)c1` [NAD+, nicotinamide adenine dinucleotide] here?
Answer: stable for about a week

Question: What about the stability of solution ([1]; in acids or alkalis) of the same compound?
Answer: decompose rapidly

Question: And the “symptoms of alcohol hangover” value (alcohol hangover)?
Answer: Significant improvement
